For test [1], the system named is Stx2a cytotoxicity in Vero cells. To be noted: 72 h.
For the next test, the target named is Stx2a A-subunit (Escherichia phage 933W, UniProt P09385). The test can be described thus: biochemical. The test is classed as binding, Escherichia coli.

SMILES strings stand for the structures. Square brackets hold non-standard residues; d marks the D form. Peptide text beside a SMILES is read from it. βAla = NCCC(=O)O

Chain of Stx2a A-subunit (P09385 23-319 limits assumed): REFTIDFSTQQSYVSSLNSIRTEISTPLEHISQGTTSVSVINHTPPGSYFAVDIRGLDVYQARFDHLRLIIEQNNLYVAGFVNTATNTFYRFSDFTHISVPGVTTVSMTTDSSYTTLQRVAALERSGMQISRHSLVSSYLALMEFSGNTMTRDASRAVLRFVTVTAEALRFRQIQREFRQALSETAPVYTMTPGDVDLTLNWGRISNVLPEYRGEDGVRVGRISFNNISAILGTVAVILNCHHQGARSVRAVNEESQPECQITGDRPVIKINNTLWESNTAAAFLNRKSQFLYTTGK

`C[C@H](NC(=O)[C@H](CCCNC(=N)N)NC(=O)[C@H](CCCNC(=N)N)NC(=O)[C@H](CCCNC(=N)N)NC(=O)[C@@H](N)CCCNC(=N)N)C(N)=O` [R4A-mono] (H-RRRRA-NH2) gave an IC50 in test [1] of 56.8 ± 2.8 µM. As for `CSCC[C@H](NC(=O)[C@H](C)NC(=O)[C@@H](N)CCSC)C(=O)N[C@@H](CCSC)C(=O)NCCC(=O)N[C@@H](CCCNC(=N)N)C(=O)N[C@@H](CCCNC(=N)N)C(=O)N[C@@H](CCCNC(=N)N)C(=O)N[C@@H](CCCNC(=N)N)C(=O)N[C@@H](C)C(N)=O` [MMβA-mono, reference compound] (H-MAMM[βAla]RRRRA-NH2), in test [1], the IC50 was found to be 21 ± 4 µM.

Take `C[C@H](NC(=O)[C@H](CCCNC(=N)N)NC(=O)[C@@H](N)CCCNC(=N)N)C(N)=O` [R2A-mono] (H-Arg-Arg-Ala-NH2): the IC50 on Stx2a A-subunit was found to be 132 µM; in test [1], 66 ± 17 µM. `C[C@H](N)C(=O)N[C@@H](CCCNC(=N)N)C(=O)N[C@@H](CCCNC(=N)N)C(=O)N[C@@H](CCCNC(=N)N)C(=O)N[C@@H](CCCNC(=N)N)C(=O)N[C@@H](C)C(N)=O` [AR4A-mono] (H-ARRRRA-NH2): the results for the IC50 (against Stx2a A-subunit; in test [1]) were 2.27 µM and 51.6 ± 2.2 µM, respectively. The matching figures for `N=C(N)NCCC[C@H](NC(=O)[C@H](CCCNC(=N)N)NC(=O)[C@@H](N)CCCNC(=N)N)C(N)=O` [R3-mono] (H-Arg-Arg-Arg-NH2): 3.68 µM and 78.7 ± 4.7 µM.

For `C[C@H](NC(=O)[C@H](CCCNC(=N)N)NC(=O)[C@H](CCCNC(=N)N)NC(=O)[C@@H](N)CCCNC(=N)N)C(N)=O` [R3A-mono] (H-RRRA-NH2), the IC50 turned out to be 89.6 µM against Stx2a A-subunit and 52.1 ± 3.5 µM in test [1]. For `N=C(N)NCCC[C@H](NC(=O)[C@H](CCCNC(=N)N)NC(=O)[C@H](CCCNC(=N)N)NC(=O)[C@@H](N)CCCNC(=N)N)C(N)=O` [R4-mono] (H-RRRR-NH2), the IC50 against Stx2a A-subunit was 0.387 µM; in test [1], 55.4 ± 8.9 µM.

These data come from article PMC9259562 (Scientific Reports, 2022).
